The values below come from ChEMBL document CHEMBL4673302, “Efficient synthesis and antitumor evaluation of 4-aminomethyl-N-arylpyrazoles: Discovery of potent and selective agents for ovarian cancer” (Bioorg Med Chem, 2021).

The subject of one data set is OVCAR-3. The data set is described as follows: Anticancer activity against human OVCAR-3 cells assessed as cell growth inhibition measured after 48 hrs by sulforhodamine B assay. The format is functional. A general note: The SRB assay estimates cell density from bound dye.
The next data set deals with NCI-H460. Briefly: Anticancer activity against human NCI-H460 cells assessed as cell growth inhibition measured after 48 hrs by sulforhodamine B assay. The data set is classed as functional.
The subject of a further data set is MCF7. The data set is described as follows: Anticancer activity against human MCF7 cells assessed as cell growth inhibition measured after 48 hrs by sulforhodamine B assay. The data set is classed as functional.
A further data set relates to PC-3. Briefly: Anticancer activity against human PC-3 cells assessed as cell growth inhibition measured after 48 hrs by sulforhodamine B assay. The data set is classed as functional. To be noted: Homo sapiens, PC-3, 48 h.
In the next data set the test system is HT-29. Briefly: Anticancer activity against human HT-29 cells assessed as cell growth inhibition measured after 48 hrs by sulforhodamine B assay. The format is functional. To be noted: Homo sapiens, HT-29, 48 h.
A further data set concerns U-251. The data set is described as follows: Anticancer activity against human U-251 cells assessed as cell growth inhibition measured after 48 hrs by sulforhodamine B assay. The format is functional. To be noted: Homo sapiens, U-251, 48 h.
Another data set concerns K562. Briefly: Anticancer activity against human K562 cells assessed as cell growth inhibition measured after 48 hrs by sulforhodamine B assay. The data set is classed as functional.
In another data set the test system is 786-0. The data set is described as follows: Anticancer activity against human 786-0 cells assessed as cell growth inhibition measured after 48 hrs by sulforhodamine B assay. The data set is classed as functional.
A short description of data set [1]: (§1) Cytotoxicity against human HaCaT cells assessed as cell growth inhibition measured after 48 hrs by sulforhodamine B assay. The format is cell-based. To be noted: HaCaT cells.
Another data set concerns HaCaT. The data set is described as §1. The data set is classed as cell-based. To be noted: hacat, 48 h.

Regarding `CC(C)(C)NCc1c(C(=O)O)nn(-c2ccc(Cl)cc2)c1-c1ccc([N+](=O)[O-])cc1`, the GI50 (in general, the concentration giving 50% growth inhibition) is 162 µM in the data set on OVCAR-3 (Homo sapiens, OVCAR-3, 48 h); 141 µM in the data set on NCI-H460 (Homo sapiens, NCI-H460, 48 h); 550 µM in the data set on MCF7 (Homo sapiens, MCF7, 48 h); > 584 µM in the data set with PC-3; > 584 µM in the data set with HT-29; > 584 µM with U-251. For the same compound, the GI50 in the data set on K562 (Homo sapiens, K562, 48 h) was 158 µM; in the data set on 786-0 (Homo sapiens, 786-0, 48 h), 104 µM. Besides, the GI50 at 48 h in data set [1] is > 584 µM.

Regarding `COc1ccc(-c2c(CNC(C)(C)C)c(C(=O)O)nn2-c2ccc(Cl)cc2)cc1`, the GI50 with OVCAR-3 (Homo sapiens, OVCAR-3, 48 h) was 121 µM; in the data set with NCI-H460 (Homo sapiens, NCI-H460, 48 h), > 605 µM; in the data set with MCF7 (Homo sapiens, MCF7, 48 h) it was 220 µM; with PC-3, > 605 µM; with HT-29 it was > 605 µM; in the data set with U-251, 498 µM. For the same compound, the GI50 in the data set on K562 (Homo sapiens, K562, 48 h) is > 605 µM; with 786-0 (Homo sapiens, 786-0, 48 h) it was > 605 µM. Besides, in data set [1], the GI50 at 48 h was 121 µM.

On to `CCOC(=O)c1nn(-c2ccc(Cl)cc2)c(-c2ccccc2)c1CNC(C)(C)C`, for which the GI50 with OVCAR-3 (Homo sapiens, OVCAR-3, 48 h) was > 608 µM; in the data set on NCI-H460 (Homo sapiens, NCI-H460, 48 h), > 608 µM; in the data set on MCF7 (Homo sapiens, MCF7, 48 h), > 608 µM; with PC-3, > 608 µM; with HT-29, 336 µM; with U-251, > 608 µM. In addition, the GI50 in the data set with K562 (48 h) is 64.5 µM; in the data set on 786-0 (Homo sapiens, 786-0, 48 h) it was > 608 µM. The GI50 at 48 h in [1] is > 608 µM.

Take `CCOC(=O)c1nn(-c2ccc(Cl)cc2)c(-c2ccc(Br)cc2)c1CNC(C)(C)C`: the GI50 in the data set with OVCAR-3 (Homo sapiens, OVCAR-3, 48 h) was > 511 µM; in the data set on NCI-H460 (Homo sapiens, NCI-H460, 48 h) it was > 511 µM; in the data set on MCF7 (Homo sapiens, MCF7, 48 h), > 511 µM; in the data set with PC-3, > 511 µM; with HT-29, > 511 µM; with U-251 it was > 511 µM. Besides, the GI50 in the data set with K562 (Homo sapiens, K562, 48 h) was > 511 µM; with 786-0 (Homo sapiens, 786-0, 48 h) it was > 511 µM. For the same compound, the GI50 at 48 h in data set [1] is > 511 µM.

`COc1ccc(-c2c(CNC(C)(C)C)c(C(=O)O)nn2-c2ccccc2)cc1`: the GI50 with OVCAR-3 (Homo sapiens, OVCAR-3, 48 h) is > 659 µM; in the data set on NCI-H460 (Homo sapiens, NCI-H460, 48 h), > 659 µM; in the data set with MCF7 (Homo sapiens, MCF7, 48 h), > 659 µM; in the data set on PC-3, > 659 µM; with HT-29 it was > 659 µM; in the data set with U-251 it was > 659 µM. The GI50 is > 659 µM in the data set on K562 (Homo sapiens, K562, 48 h) and > 659 µM with 786-0 (Homo sapiens, 786-0, 48 h). The GI50 at 48 h in [1] was > 659 µM.

For the compound `CCOC(=O)c1nn(-c2ccc(Cl)cc2)c(-c2ccc([N+](=O)[O-])cc2)c1CNC(C)(C)C`, the GI50 is 206 µM in the data set with OVCAR-3 (48 h); > 548 µM in the data set on NCI-H460 (48 h); > 548 µM with MCF7 (48 h); > 548 µM in the data set with PC-3; 42.3 µM in the data set with HT-29; > 548 µM in the data set with U-251. Further, the GI50 came out at 181 µM in the data set on K562 (48 h), 316 µM in the data set on 786-0 (48 h) and 10.3 µM in the data set with HaCaT.

Consider `Cc1ccc(-c2c(CNC(C)(C)C)c(C(=O)O)nn2-c2ccccc2)cc1`, for which the 50% growth inhibitory concentration (GI50) in the data set on OVCAR-3 (Homo sapiens, OVCAR-3, 48 h) is 283 µM; with NCI-H460 (Homo sapiens, NCI-H460, 48 h), > 688 µM; with MCF7 (Homo sapiens, MCF7, 48 h), > 688 µM; in the data set on PC-3, > 688 µM; in the data set on HT-29 it was > 688 µM; with U-251 it was > 688 µM. Further, the GI50 was > 688 µM with K562 (Homo sapiens, K562, 48 h) and > 688 µM with 786-0 (Homo sapiens, 786-0, 48 h). For the same compound, in data set [1], the GI50 at 48 h is > 688 µM.

Take `CC(C)(C)NCc1c(C(=O)O)nn(-c2ccccc2)c1-c1ccc([N+](=O)[O-])cc1`: the GI50 was > 634 µM in the data set with OVCAR-3 (Homo sapiens, OVCAR-3, 48 h); > 634 µM in the data set on NCI-H460 (Homo sapiens, NCI-H460, 48 h); > 634 µM in the data set with MCF7 (Homo sapiens, MCF7, 48 h); > 634 µM with PC-3; > 634 µM in the data set on HT-29; > 634 µM in the data set on U-251. For the same compound, the GI50 is > 634 µM with K562 (Homo sapiens, K562, 48 h) and > 634 µM in the data set with 786-0 (Homo sapiens, 786-0, 48 h). For the same compound, the concentration for 50% growth inhibition (GI50) at 48 h in data set [1] was > 634 µM.

Turning to `CC(C)(C)NCc1c(C(=O)O)nn(-c2ccc(Cl)cc2)c1-c1ccc(Cl)cc1`, the GI50 in the data set with OVCAR-3 (Homo sapiens, OVCAR-3, 48 h) is 84.9 µM; with NCI-H460 (Homo sapiens, NCI-H460, 48 h), > 599 µM; in the data set with MCF7 (Homo sapiens, MCF7, 48 h) it was 246 µM; in the data set with PC-3 it was > 599 µM; in the data set on HT-29, > 599 µM; in the data set on U-251, 518 µM. Moreover, the GI50 is 290 µM in the data set on K562 (Homo sapiens, K562, 48 h) and > 599 µM in the data set with 786-0 (Homo sapiens, 786-0, 48 h). Besides, in data set [1], the GI50 at 48 h worked out at 87.5 µM.

Take `CC(C)(C)NCc1c(C(=O)O)nn(-c2ccccc2)c1-c1ccccc1`: the GI50 is > 716 µM with OVCAR-3 (Homo sapiens, OVCAR-3, 48 h); > 716 µM with NCI-H460 (Homo sapiens, NCI-H460, 48 h); > 716 µM in the data set with MCF7 (Homo sapiens, MCF7, 48 h); > 716 µM in the data set on PC-3; > 716 µM in the data set on HT-29; > 716 µM in the data set with U-251. Also, the GI50 with K562 (Homo sapiens, K562, 48 h) was > 716 µM; in the data set with 786-0 (Homo sapiens, 786-0, 48 h), > 716 µM. The GI50 at 48 h in data set [1] is > 716 µM.
